Numbered stars: 1 amine (or outer) side, 2 acyl side, 3 side chain; on linkers, the order of the positions; unused ones are H or OH. Square brackets hold non-standard residues; d marks the D form. Peptide text beside a SMILES is read from it. X1 = CC(C)(CN([C@@H](CCC(N)=O)C(=O)[*:2])[*:1])NC(=O)[C@@H](N)Cc1c[nH]cn1; Aib = CC(C)(N)C(=O)O
Columns and labels:
[1] = molecular target: T1, Glucagon-like peptide 1 receptor (Mus musculus, UniProt O35659); test: Agonist activity at mouse GLP-1R expressed in CHO cells assessed as increase in cAMP accumulation; format: cell-based
T1 sequence (O35659 whole entry): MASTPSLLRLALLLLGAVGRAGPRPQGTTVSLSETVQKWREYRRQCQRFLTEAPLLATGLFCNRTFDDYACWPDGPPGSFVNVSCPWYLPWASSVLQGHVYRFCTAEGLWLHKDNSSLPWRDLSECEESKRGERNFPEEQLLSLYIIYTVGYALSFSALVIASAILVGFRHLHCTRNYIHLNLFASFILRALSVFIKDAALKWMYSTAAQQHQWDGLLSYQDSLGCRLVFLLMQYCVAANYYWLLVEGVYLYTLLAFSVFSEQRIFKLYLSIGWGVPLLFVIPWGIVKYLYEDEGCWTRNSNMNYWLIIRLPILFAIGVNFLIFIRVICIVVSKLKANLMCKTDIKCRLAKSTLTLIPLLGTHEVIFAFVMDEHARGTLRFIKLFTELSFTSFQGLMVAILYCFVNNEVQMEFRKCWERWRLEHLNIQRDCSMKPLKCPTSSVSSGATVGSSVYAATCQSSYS

Glucagon receptor = Glucagon receptor (Mus musculus, UniProt Q61606); test: Agonist activity at mouse GCGR expressed in CHO cells assessed as increase in cAMP accumulation; format: cell-based
Sequence of Glucagon receptor (Q61606 whole entry): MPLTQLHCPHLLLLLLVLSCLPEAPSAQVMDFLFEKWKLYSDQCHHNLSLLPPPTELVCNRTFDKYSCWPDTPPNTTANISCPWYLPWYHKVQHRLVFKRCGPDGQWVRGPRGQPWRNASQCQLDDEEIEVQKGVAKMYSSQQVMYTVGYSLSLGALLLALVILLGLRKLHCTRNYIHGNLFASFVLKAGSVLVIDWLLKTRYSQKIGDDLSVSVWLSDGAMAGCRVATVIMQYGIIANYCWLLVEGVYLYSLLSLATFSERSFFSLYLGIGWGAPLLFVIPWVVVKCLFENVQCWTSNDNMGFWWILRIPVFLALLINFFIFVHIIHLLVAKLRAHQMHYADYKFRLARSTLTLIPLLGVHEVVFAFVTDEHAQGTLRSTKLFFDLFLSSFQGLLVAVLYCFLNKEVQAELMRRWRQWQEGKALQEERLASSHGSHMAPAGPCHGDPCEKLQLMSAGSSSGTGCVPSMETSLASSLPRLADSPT

| EC50 [1] [nM] | EC50 (Glucagon receptor) [nM] | Structure (SMILES) |
| --- | --- | --- |
| 0.45 | 0.68 | CSCC[C@H](NC(=O)[C@H](CC(C)C)NC(=O)[C@H](Cc1c[nH]c2ccccc12)NC(=O)[C@H](CS)NC(=O)[C@@H](NC(=O)[C@H](Cc1ccccc1)NC(=O)[C@H](CCC(=O)O)NC(=O)[C@H](CCCCN)NC(=O)[C@H](C)NC(=O)[C@H](CCCNC(=N)N)NC(=O)[C@H](CCCCN)NC(=O)[C@H](CCC(=O)O)NC(=O)[C@H](CC(=O)O)NC(=O)[C@H](CC(C)C)NC(=O)[C@H](Cc1ccc(O)cc1)NC(=O)[C@H](CCCCN)NC(=O)[C@H](CO)NC(=O)[C@H](Cc1ccc(O)cc1)NC(=O)[C@H](CC(=O)O)NC(=O)[C@H](CO)NC(=O)[C@@H](NC(=O)[C@H](Cc1ccccc1)NC(=O)[C@@H](NC(=O)CNC(=O)[C@H](CCC(N)=O)NCC(C)(C)NC(=O)[C@@H](N)Cc1c[nH]cn1)[C@@H](C)O)[C@@H](C)O)C(C)C)C(=O)N[C@@H](CC(N)=O)C(=O)N[C@H](C(=O)NCC(=O)N1CCC[C@H]1C(=O)N[C@@H](CO)C(=O)N[C@@H](CO)C(=O)NCC(=O)N[C@@H](C)C(=O)N1CCC[C@H]1C(=O)N[C@@H](CO)C(N)=O)[C@@H](C)O (H-[X1]GTFTSDYSKYLDEKRAKEFVCWLMNTGPSSGAPS-NH2) |
| 1.36 | 1.44 | CC[C@H](C)[C@H](NC(=O)[C@H](CC(N)=O)NC(=O)[C@H](CC(N)=O)NC(=O)[C@H](CCCNC(=N)N)NC(=O)[C@H](CC(N)=O)NC(=O)[C@H](CCCNC(=N)N)NC(=O)[C@H](CCCCN)NC(=O)[C@@H](NC(=O)[C@H](CC(N)=O)NC(=O)[C@H](CCSC)NC(=O)[C@H](CC(C)C)NC(=O)[C@H](Cc1c[nH]c2ccccc12)NC(=O)[C@H](CCC(=O)O)NC(=O)[C@@H](NC(=O)[C@H](Cc1ccccc1)NC(=O)[C@H](CCC(=O)O)NC(=O)[C@H](CCCCN)NC(=O)[C@H](C)NC(=O)[C@H](CCCNC(=N)N)NC(=O)[C@H](CCCCN)NC(=O)[C@H](CCC(=O)O)NC(=O)[C@H](CC(=O)O)NC(=O)[C@H](CC(C)C)NC(=O)[C@H](Cc1ccc(O)cc1)NC(=O)[C@H](CCCCN)NC(=O)[C@H](CO)NC(=O)[C@H](Cc1ccc(O)cc1)NC(=O)[C@H](CC(=O)O)NC(=O)[C@H](CO)NC(=O)[C@@H](NC(=O)[C@H](Cc1ccccc1)NC(=O)[C@@H](NC(=O)CNC(=O)[C@H](CCC(N)=O)NC(=O)C(C)(C)NC(=O)[C@@H](N)Cc1c[nH]cn1)[C@@H](C)O)[C@@H](C)O)C(C)C)[C@@H](C)O)C(=O)N[C@@H](C)C(N)=O (H-H[Aib]QGTFTSDYSKYLDEKRAKEFVEWLMNTKRNRNNIA-NH2) |
| 17.6 | 9.03 | CC[C@H](C)[C@H](NC(=O)[C@H](CC(N)=O)NC(=O)[C@H](CC(N)=O)NC(=O)[C@H](CCCNC(=N)N)NC(=O)[C@H](CC(N)=O)NC(=O)[C@H](CCCNC(=N)N)NC(=O)[C@H](CCCCN)NC(=O)[C@@H](NC(=O)[C@H](CC(N)=O)NC(=O)[C@H](CCSC)NC(=O)[C@H](CC(C)C)NC(=O)[C@H](Cc1c[nH]c2ccccc12)NC(=O)[C@H](CCC(N)=O)NC(=O)[C@@H](NC(=O)[C@H](Cc1ccccc1)NC(=O)[C@H](CCC(=O)O)NC(=O)[C@H](CCCCN)NC(=O)[C@H](C)NC(=O)[C@H](CCCNC(=N)N)NC(=O)[C@H](CCCCN)NC(=O)[C@H](CCC(=O)O)NC(=O)[C@H](CC(=O)O)NC(=O)[C@H](CC(C)C)NC(=O)[C@H](Cc1ccc(O)cc1)NC(=O)[C@H](CCCCN)NC(=O)[C@H](CO)NC(=O)[C@H](Cc1ccc(O)cc1)NC(=O)[C@H](CC(=O)O)NC(=O)[C@H](CCC(=O)O)NC(=O)[C@@H](NC(=O)[C@H](Cc1ccccc1)NC(=O)[C@@H](NC(=O)CNC(=O)[C@H](CCC(N)=O)NC(=O)C(C)(C)NC(=O)[C@@H](N)Cc1c[nH]cn1)[C@@H](C)O)[C@@H](C)O)C(C)C)[C@@H](C)O)C(=O)N[C@@H](C)C(N)=O (H-H[Aib]QGTFTEDYSKYLDEKRAKEFVQWLMNTKRNRNNIA-NH2) |
| 0.36 | 0.53 | CSCC[C@H](NC(=O)[C@H](CC(C)C)NC(=O)[C@H](Cc1c[nH]c2ccccc12)NC(=O)[C@H](CCC(N)=O)NC(=O)[C@@H](NC(=O)[C@H](Cc1ccccc1)NC(=O)[C@H](CCC(=O)O)NC(=O)[C@H](CCCCN)NC(=O)[C@H](C)NC(=O)[C@H](CCCNC(=N)N)NC(=O)[C@H](CCCCN)NC(=O)[C@H](CCC(=O)O)NC(=O)[C@H](CC(=O)O)NC(=O)[C@H](CC(C)C)NC(=O)[C@H](Cc1ccc(O)cc1)NC(=O)[C@H](CCCCN)NC(=O)[C@H](CO)NC(=O)[C@H](Cc1ccc(O)cc1)NC(=O)[C@H](CC(=O)O)NC(=O)[C@H](CO)NC(=O)[C@@H](NC(=O)[C@H](Cc1ccccc1)NC(=O)[C@@H](NC(=O)CNC(=O)[C@H](CCC(N)=O)NC(=O)C(C)(C)NC(=O)[C@@H](N)Cc1c[nH]cn1)[C@@H](C)O)[C@@H](C)O)C(C)C)C(=O)N[C@@H](CC(N)=O)C(=O)N[C@H](C(=O)NCC(=O)N1CCC[C@H]1C(=O)N[C@@H](CO)C(=O)N[C@@H](CO)C(=O)NCC(=O)N[C@@H](C)C(=O)N1CCC[C@H]1C(=O)N[C@@H](CO)C(N)=O)[C@@H](C)O |
| 0.4 | 0.59 | CSCC[C@H](NC(=O)[C@H](CC(C)C)NC(=O)[C@H](Cc1c[nH]c2ccccc12)NC(=O)[C@H](CCC(N)=O)NC(=O)[C@@H](NC(=O)[C@H](Cc1ccccc1)NC(=O)[C@H](CCC(=O)O)NC(=O)[C@H](CCCCN)NC(=O)[C@H](C)NC(=O)[C@H](CCCNC(=N)N)NC(=O)[C@H](CCCCN)NC(=O)[C@H](CCC(=O)O)NC(=O)[C@H](CC(=O)O)NC(=O)[C@H](CC(C)C)NC(=O)[C@H](Cc1ccc(O)cc1)NC(=O)[C@H](CCCCN)NC(=O)[C@H](CO)NC(=O)[C@H](Cc1ccc(O)cc1)NC(=O)[C@H](CC(=O)O)NC(=O)[C@H](CO)NC(=O)[C@@H](NC(=O)[C@H](Cc1ccccc1)NC(=O)[C@@H](NC(=O)CNC(=O)[C@H](CCC(N)=O)NC(=O)C(C)(C)NC(=O)[C@@H](N)Cc1c[nH]cn1)[C@@H](C)O)[C@@H](C)O)C(C)C)C(=O)N[C@@H](CC(N)=O)C(=O)N[C@H](C(=O)NCC(=O)N1CCC[C@H]1C(=O)N[C@@H](CO)C(=O)N[C@@H](CO)C(=O)NCC(=O)N[C@@H](C)C(=O)N1CCC[C@H]1C(=O)N[C@@H](CO)C(=O)N[C@@H](CS)C(N)=O)[C@@H](C)O |
| 0.61 | 0.94 | CC[C@H](C)[C@H](NC(=O)[C@H](CC(N)=O)NC(=O)[C@H](CC(N)=O)NC(=O)[C@H](CCCNC(=N)N)NC(=O)[C@H](CC(N)=O)NC(=O)[C@H](CCCNC(=N)N)NC(=O)[C@H](CCCCN)NC(=O)[C@@H](NC(=O)[C@H](CC(N)=O)NC(=O)[C@H](CCSC)NC(=O)[C@H](CC(C)C)NC(=O)[C@H](Cc1c[nH]c2ccccc12)NC(=O)[C@H](CCC(N)=O)NC(=O)[C@@H](NC(=O)[C@H](Cc1ccccc1)NC(=O)[C@H](CCC(=O)O)NC(=O)[C@H](CCCCN)NC(=O)[C@H](C)NC(=O)[C@H](CCCNC(=N)N)NC(=O)[C@H](CCCCN)NC(=O)[C@H](CCC(=O)O)NC(=O)[C@H](CC(=O)O)NC(=O)[C@H](CC(C)C)NC(=O)[C@H](Cc1ccc(O)cc1)NC(=O)[C@H](CCCCN)NC(=O)[C@H](CO)NC(=O)[C@H](Cc1ccc(O)cc1)NC(=O)[C@H](CC(=O)O)NC(=O)[C@H](CO)NC(=O)[C@@H](NC(=O)[C@H](Cc1ccccc1)NC(=O)[C@@H](NC(=O)CNC(=O)[C@H](CCC(N)=O)NC(=O)C(C)(C)NC(=O)[C@@H](N)Cc1c[nH]cn1)[C@@H](C)O)[C@@H](C)O)C(C)C)[C@@H](C)O)C(=O)N[C@@H](C)C(N)=O |
| 3.47 | 6.14 | CC[C@H](C)[C@H](NC(=O)[C@H](CC(N)=O)NC(=O)[C@H](CC(N)=O)NC(=O)[C@H](CCCNC(=N)N)NC(=O)[C@H](CC(N)=O)NC(=O)[C@H](CCCNC(=N)N)NC(=O)[C@H](CCCCN)NC(=O)[C@@H](NC(=O)[C@H](CC(N)=O)NC(=O)[C@H](CCSC)NC(=O)[C@H](CC(C)C)NC(=O)[C@H](Cc1c[nH]c2ccccc12)NC(=O)[C@H](CCC(N)=O)NC(=O)[C@@H](NC(=O)[C@H](Cc1ccccc1)NC(=O)[C@H](CC(=O)O)NC(=O)[C@H](CCC(N)=O)NC(=O)[C@H](C)NC(=O)[C@H](CCCNC(=N)N)NC(=O)[C@H](CCCNC(=N)N)NC(=O)[C@H](CCC(=O)O)NC(=O)[C@H](CC(=O)O)NC(=O)[C@H](CC(C)C)NC(=O)[C@H](Cc1ccc(O)cc1)NC(=O)[C@H](CCCCN)NC(=O)[C@H](CO)NC(=O)[C@H](Cc1ccc(O)cc1)NC(=O)[C@H](CC(=O)O)NC(=O)[C@H](CO)NC(=O)[C@@H](NC(=O)[C@H](Cc1ccccc1)NC(=O)[C@@H](NC(=O)CNC(=O)[C@H](CCC(N)=O)NC(=O)C(C)(C)NC(=O)[C@@H](N)Cc1c[nH]cn1)[C@@H](C)O)[C@@H](C)O)C(C)C)[C@@H](C)O)C(=O)N[C@@H](C)C(N)=O (H-H[Aib]QGTFTSDYSKYLDERRAQDFVQWLMNTKRNRNNIA-NH2) |
| 1.59 | 3.41 | CC[C@H](C)[C@H](NC(=O)[C@H](CC(N)=O)NC(=O)[C@H](CC(N)=O)NC(=O)[C@H](CCCNC(=N)N)NC(=O)[C@H](CC(N)=O)NC(=O)[C@H](CCCNC(=N)N)NC(=O)[C@H](CCCCN)NC(=O)[C@@H](NC(=O)[C@H](CC(N)=O)NC(=O)[C@H](CCSC)NC(=O)[C@H](CC(C)C)NC(=O)[C@H](Cc1c[nH]c2ccccc12)NC(=O)[C@H](CCC(N)=O)NC(=O)[C@@H](NC(=O)[C@H](Cc1ccccc1)NC(=O)[C@H](CC(=O)O)NC(=O)[C@H](CCCCN)NC(=O)[C@H](C)NC(=O)[C@H](CCCNC(=N)N)NC(=O)[C@H](CCCNC(=N)N)NC(=O)[C@H](CCC(=O)O)NC(=O)[C@H](CC(=O)O)NC(=O)[C@H](CC(C)C)NC(=O)[C@H](Cc1ccc(O)cc1)NC(=O)[C@H](CCCCN)NC(=O)[C@H](CO)NC(=O)[C@H](Cc1ccc(O)cc1)NC(=O)[C@H](CC(=O)O)NC(=O)[C@H](CO)NC(=O)[C@@H](NC(=O)[C@H](Cc1ccccc1)NC(=O)[C@@H](NC(=O)CNC(=O)[C@H](CCC(N)=O)NC(=O)C(C)(C)NC(=O)[C@@H](N)Cc1c[nH]cn1)[C@@H](C)O)[C@@H](C)O)C(C)C)[C@@H](C)O)C(=O)N[C@@H](C)C(N)=O (H-H[Aib]QGTFTSDYSKYLDERRAKDFVQWLMNTKRNRNNIA-NH2) |

— ChEMBL document CHEMBL5244248, “A novel long-acting oxyntomodulin analogue eliminates diabetes and obesity in mice” (Eur J Med Chem, 2020)
